From ChEMBL document CHEMBL3880418, “Pyripyropene derivative having ACAT2 inhibiting activity and stable to metabolizing enzymes” (2013)

What was measured:
[1] = Half life in Sprague-Dawley rat liver microsomes at 6 ug/ml by HPLC method; format: ADME
[2] = biological target: T1, Sterol O-acyltransferase 2 (Mus musculus) (UniProt O88908); assay: Ratio of compound IC50 to PRD 043 IC50 for ACAT2 in mouse hepatic microsomal membranes; format: cell membranes; settings: Liver, Microsomal Membrane
T1 sequence (whole entry): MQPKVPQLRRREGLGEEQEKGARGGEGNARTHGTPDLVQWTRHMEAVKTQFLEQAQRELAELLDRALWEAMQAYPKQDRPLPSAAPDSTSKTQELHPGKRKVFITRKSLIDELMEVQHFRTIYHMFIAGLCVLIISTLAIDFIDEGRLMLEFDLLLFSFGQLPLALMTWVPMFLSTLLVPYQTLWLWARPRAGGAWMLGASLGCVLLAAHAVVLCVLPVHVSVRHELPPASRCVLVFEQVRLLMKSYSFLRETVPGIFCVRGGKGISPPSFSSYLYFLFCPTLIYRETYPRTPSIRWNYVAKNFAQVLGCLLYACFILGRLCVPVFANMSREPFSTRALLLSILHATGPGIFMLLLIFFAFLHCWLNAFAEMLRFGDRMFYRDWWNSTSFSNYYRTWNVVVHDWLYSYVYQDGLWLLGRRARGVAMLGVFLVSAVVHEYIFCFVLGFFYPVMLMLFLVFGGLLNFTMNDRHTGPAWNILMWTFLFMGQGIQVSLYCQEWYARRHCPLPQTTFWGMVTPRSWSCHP

half-life at 6 ug/ml [1] [h]	Ratio IC50 [2]	Structure (SMILES)
> 9	< 20	COc1ccc(CNC(=O)[C@@]2(C)[C@@H](OC(C)=O)CC[C@]3(C)[C@H]4[C@@H](O)c5c(cc(-c6cccnc6)oc5=O)O[C@]4(C)[C@@H](OC(=O)c4ccc(C#N)cc4)C[C@H]32)c(OC)c1
> 9	< 20	CC(=O)OC[C@@]1(C)[C@@H]2C[C@H](OC(=O)c3ccc(C#N)cc3)[C@@]3(C)Oc4cc(-c5cccnc5)oc(=O)c4[C@H](O)[C@@H]3[C@@]2(C)CC[C@@H]1OC(=O)c1ccccc1
> 9	< 20	CN(C)c1ccc([C@@H]2OC[C@@]3(C)[C@@H]4C[C@H](OC(=O)c5ccc(C#N)cc5)[C@@]5(C)Oc6cc(-c7cccnc7)oc(=O)c6[C@H](O)[C@@H]5[C@@]4(C)CC[C@@H]3O2)cc1
> 9	< 20	CC(=O)O[C@H]1CC[C@@]2(C)[C@@H](C[C@H](OC(C)=O)[C@@]3(C)Oc4cc(-c5cccnc5)oc(=O)c4[C@H](O)[C@H]23)[C@]1(C)COC(=O)c1ccccc1
